Experiments:
[1] = tested on: WM266.4 melanoma cell line (mutant BRAF); experiment: Assay C - SRB cell proliferation assay, WM266.4; type: cell-based; conditions: Homo sapiens, WM 266-4, 120 h; WM266.4, 5 days growth
Method: (§1) Values for the blank (no cells) are subtracted from all values. The DMSO controls are set as 100% activity and assay points (the response) are calculated as a percentage of the DMSO control. Data are plotted using Graphpad Prism software and a non-linear regression line is calculated using a variable slope sigmoidal dose-response equation: Y=Bottom+[Top−Bottom]/[1+10^((Log EC50−X)*HillSlope)] where X is the logarithm of concentration and Y is the response). The IC50 generated by this procedure is the concentration of the drug that produces a percentage control fluorescence value midway between the saturation, and zero-effect plateaus. Three independent assays are usually performed and the mean IC50 is reported. Biological Methods—Assay C—SRB Cell Proliferation Assay (SRB GI50)
Cell lines (e.g., WM266.4 and A375M melanoma cell lines; SW620 colorectal carcinoma cell line) are routinely cultured in DMEM or RPMI1640 supplemented with 10% foetal bovine serum, at 37° C., in 10% CO2 water saturated atmosphere. Cultures are maintained in exponential growth phase by sub-culturing before having become confluent (3-5 day intervals). Single cell suspensions are prepared by harvesting an 80 cm^2 tissue culture flask with 5 mL commercial trypsin EDTA. After 5 minutes, the detached cells are mixed with 5 mL fully complemented culture medium and centrifugally pelleted (1000 rpm for 7 minutes). After aspirating the supernatant, the cell pellet is re-suspended in 10 mL fresh medium and the cells fully disaggregated by drawing the whole volume up/down 5 times through a 19-gauge needle. The concentration of the cells is determined using a haemocytometer ( 1/10 dilution). A suitable volume to give at least a 2-fold excess for the number of tests being conducted, typically 100-200 mL, is prepared by diluting the cell suspension to 10,000-40,000/mL, and 100 μL/well dispensed into 96 well plates using a programmable 8-channel peristaltic pump, giving 1000-4000 cells/well, leaving column 12 blank. The plates are returned to the incubator for 24 hours to allow the cells to re-attach.
The compounds being tested are prepared at 10 mM in DMSO. Aliquots (24 μL) are diluted into 1.2 mL culture medium giving 200 μM, and 10 serial dilutions of 3× performed by transferring 80 μL to 160 μL. Aliquots (100 μL) of each dilution are added to the wells, using an 8-channel pipettor, thus performing a final further 2× dilution, and giving doses ranging from 100 μM to 0.005 μM. Column 11 receives plain culture medium only. Each compound is tested in quadruplicate, each replicate being the average of four wells.
After a further 5 days growth, the plates are emptied, and the cells are fixed in 10% trichloroacteic acid for 30 minutes at 4° C. After thorough rinsing in running tap water, the plates are dried, and stained by adding 50 μL of a solution of 0.1% sulphorhodamine-B in 1% acetic acid, for 10 minutes at room temperature. The stain is poured out and the plates thoroughly rinsed under a stream of 1% acetic acid, thus removing unbound stain, and dried. The bound stain is taken into solution by addition of 100 μL Tris buffer pH 8, followed by 10 minutes on a plate-shaker (approximately 500 rpm). The absorbance at 540 nm in each well (being proportional to the number of cells present) is determined using a plate reader.
After averaging the blank values in column 12 this was subtracted from all values, and results expressed as a percentage of the untreated value (column 11). […] The GI50 generated by this procedure is the concentration of the drug that produces a percentage control A540 midway between the saturation, and zero-effect plateaus.

B-RAF = B-RAF (Homo sapiens, UniProt P15056); experiment: Assay A - DELFIA kinase assay; type: biochemical; conditions: 100 μM ATP; mean of usually three assays; read-out: Assay A BRAF IC50
Sequence of B-RAF (P15056 whole entry): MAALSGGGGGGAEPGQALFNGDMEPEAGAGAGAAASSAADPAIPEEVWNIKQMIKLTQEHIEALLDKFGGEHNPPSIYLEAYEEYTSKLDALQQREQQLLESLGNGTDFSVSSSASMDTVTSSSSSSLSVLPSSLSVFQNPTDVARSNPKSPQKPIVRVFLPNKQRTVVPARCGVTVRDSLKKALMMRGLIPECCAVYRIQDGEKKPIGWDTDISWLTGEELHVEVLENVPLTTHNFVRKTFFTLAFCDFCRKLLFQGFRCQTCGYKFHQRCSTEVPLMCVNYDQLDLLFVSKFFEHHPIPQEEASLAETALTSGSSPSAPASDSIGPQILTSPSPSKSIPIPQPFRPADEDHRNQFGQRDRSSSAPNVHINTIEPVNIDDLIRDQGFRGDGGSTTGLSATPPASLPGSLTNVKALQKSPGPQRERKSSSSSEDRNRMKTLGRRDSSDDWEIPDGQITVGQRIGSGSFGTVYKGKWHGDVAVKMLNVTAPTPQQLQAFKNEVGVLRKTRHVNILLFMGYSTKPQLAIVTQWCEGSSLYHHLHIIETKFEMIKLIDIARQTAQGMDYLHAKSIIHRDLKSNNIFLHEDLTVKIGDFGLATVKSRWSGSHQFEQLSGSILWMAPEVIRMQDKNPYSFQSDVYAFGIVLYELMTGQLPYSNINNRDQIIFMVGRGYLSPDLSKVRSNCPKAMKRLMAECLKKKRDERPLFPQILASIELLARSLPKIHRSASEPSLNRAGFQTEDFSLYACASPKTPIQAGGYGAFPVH
Method: Biological Methods—Assay A—DELFIA Kinase Assay
Compounds were assessed by a kinase assay performed according to the following protocol.
The following reagents were prepared:
DELFIA Kinase Buffer (DKB):
DKB1 (DKB with B-RAF and MEK Protein):
Combine 4950 μL of DKB and 50 μL of 2.5 mg/mL GST-MEK stock (to give 1 mg of MEK per 40 μL). Then add 22.5 μL of B-RAF to give ˜0.2 μL of B-RAF per 40 μL.
DKB2 (DKB with MEK Protein):
Combine 4950 μL of DKB and 50 μL of 2.5 mg/mL GST-MEK stock (to give […] of MEK per 40 μL). Use 500 μL of this for the blow out (BO) and the empty vector (EV) control.
100 mM stock, dilute to 500 μM to give 100 μM final concentration in assay.
Inhibitors (Test Compounds):
Phospho-MEK1/2 CST #9121S diluted 1:1000 in DELFIA assay buffer (AB). Pre-incubate antibody in the AB for 30 minutes at room temperature prior to use.
Anti-rabbit-Eur labelled secondary Perkin Elmer #AD0105 diluted 1:1000 in DELFIA assay buffer (AB). Pre-incubate antibody in the AB for 30 minutes at room temperature prior to use. (Primary and secondary antibodies were incubated together.)
DELFIA assay buffer Perkin Elmer #4002-0010.
DELFIA enhancement solution Perkin Elmer #4001-0010.
96 well glutathione-coated black plate Perbio #15340.
1. Preblock wells with 5% milk in TBS for 1 hour.
2. Wash wells 3× with 200 μL TBS.
3. Plate out 40 μL of DKB1 for all inhibitors (test compounds), DMSO control, and optionally other control compounds.
4. Plate out 40 μL of DKB2 for BO and EV wells.
5. Add inhibitors (test compounds) at 0.5 μL per well according to desired plate layout.
6. Add 0.5 μL DMSO to vehicle control wells.
7. Add 2 μL of B-RAF to BO and EV wells.
8. Pre-incubate with inhibitors (test compounds) for 10 minutes at room temperature with shaking.
9. Add 10 μL of 500 μM ATP stock, in DKB, to give 100 μM assay concentration.
10. Seal plates with TopSeal and incubate at room temperature with shaking for 45 minutes.
11. Wash plates 3× with 200 μL 0.1% Tween20/Water to terminate reaction.
12. Add 50 μL per well of antibody mix and incubate for 1 hour at room temperature with shaking.
13. Wash plates 3× with 200 μL 0.1% Tween20/Water.
14. Add 100 μL DELFIA enhancement solution per well, cover in foil, and incubate at room temperature for 30 minutes with shaking.
15. Read on Victor using Europium protocol.
as §1, with “(Empty Vector)” for “(no cells)”, “response.” for “response).”, “B—Cell Based Phosho-ERK” for “C—SRB Cell Proliferation”, “Assay” for “Assay (SRB GI50)”

[2] = tested on: pERK in mutant BRAF WM266.4 cells; experiment: Assay B - cell based phospho-ERK assay; conditions: Homo sapiens, WM 266-4, 6 hours incubation
Method: as §1, with “(Empty Vector)” for “(no cells)”, “response.” for “response).”, “B—Cell Based Phosho-ERK” for “C—SRB Cell Proliferation”, “Assay” for “Assay (SRB GI50)”
Compounds were assessed using a cell-based assay which was performed according to the following protocol.
Plate out 16,000 mutant BRAF WM266.4 cells/well in 99 μL medium in a 96-well plate.
1. Add 1 μL inhibitor (test compound) to the cells (total […]).
2. Incubate the cells with test compound for 6 hours at 37° C.
3. Aspirate off the solution from all of the wells.
4. Fixate the cells with 100 μL 4% formaldehyde/0.25% Triton X-100 PBS per well.
5. Incubate the plate for 1 hour at 4° C.
6. Aspirate off the fixing solution and add 300 μL TBS per well.
7. Leave the plate overnight at 4° C.
1. Wash the plate 2× with 200 μL PBS per well.
2. Block with 100 μL 5% dried milk in TBS.
3. Incubate the plate for 20 minutes at 37° C.
4. Wash the plate 2× with 0.1% tween/H2O.
5. Add 50 μL of 3 μg/mL primary antibody pERK (Sigma M8159), diluted in 5% milk powder/TBS, to each well.
6. Incubate the plate for 2 hours at 37° C.
7. Wash the plate 3× with 0.1% tween/H2O.
8. Add 50 μL of 0.45 μg/mL secondary Europium-labelled anti-mouse antibody (Perkin Elmer) to each well.
9. Incubate the plate for 1 hour at 37° C.
10. Wash the plate 3× with 0.1% tween/H2O.
11. Add 100 μL enhancement solution (Perkin Elmer) to each well.
12. Leave the plate for approximately 10 minutes at room temperature before gently shaking the plate.
13. Read Europium Time Resolved Fluorescence in Victor2.
14. Wash the plate 2× with 0.1% tween/H2O.
15. Measure the protein concentration with BCA (Sigma) by adding 200 μL of solution per well.
16. Incubate the plate for 30 minutes at 37° C.
17. Read absorbance levels at 570 nm in a plate reader.
Note that Europium counts are normalised for protein levels by dividing counts by absorbance.
as §1

SMILES | GI50 [1] [nM] | IC50 (B-RAF) [nM] | IC50 [2] [nM]
Cc1ccc(-n2nc(C(C)(C)C)cc2NC(=O)Nc2ccc(Oc3ccnc4[nH]c(=O)n(C)c34)cc2F)cc1 [AA-02, 1-(3-Tert-butyl-1-p-tolyl-1H-pyrazol-5-yl)-3-(2-fluoro-4-(1-N-methyl-2-oxo-2,3-dihydro-1H-imidazo[4,5-b]pyridin-7-yloxy)phenyl)urea] | 57 | 197 | 20
Cn1c(=O)[nH]c2nccc(Oc3ccc(NC(=O)Nc4cc(C(C)(C)C)nn4-c4ccc(Cl)cc4)c(F)c3)c21 [AA-03, 1-(3-Tert-butyl-1-(4-chlorophenyl)-1H-pyrazol-5-yl)-3-(2-fluoro-4-(1-N-methyl-2-oxo-2,3-dihydro-1H-imidazo[4,5-b]pyridin-7-yloxy)phenyl)urea] | 121 | 302 | 60
